Data taken from patent publication US8952024B2, “Herbicidal pyrimidone derivatives” (E I du Pont de Nemours and Company, priority 2009, dated 2015).

How the values were obtained:
Format in all cases: in vivo
[1] = system: morningglory (Ipomoea spp.); experiment: Test A pre-/postemergence plant response
In short: (§1)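 Each species was treated preemergence via directed soil spray and postemergence at the one- to two-leaf stage, with compounds formulated in a non-phytotoxic solvent plus surfactant. Visual injury relative to untreated controls was rated after about ten days on a 0–100 scale.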

[2] = system: pigweed (Amaranthus retroflexus); experiment: Test A pre-/postemergence plant response
In short: as §1

[3] = system: giant foxtail (Setaria faberii); experiment: Test A pre-/postemergence plant response
In short: as §1

[4] = system: barnyardgrass (Echinochloa crus-galli); experiment: Test A pre-/postemergence plant response
In short: as §1

corn (Zea mays) = experiment: Test A pre-/postemergence plant response
In short: as §1

[5] = system: wheat (Triticum aestivum); experiment: Test A pre-/postemergence plant response
In short: as §1

[6] = system: velvetleaf (Abutilon theophrasti); experiment: Test A pre-/postemergence plant response
In short: as §1

[7] = system: large crabgrass (Digitaria sanguinalis); experiment: Test A pre-/postemergence plant response
In short: as §1

[8] = system: winter barley (Hordeum vulgare); experiment: Test B postemergence plant response; conditions: for Barley plant response rating (0 to 100 scale): 62 g ai/ha, 0 is no effect, 13 to 15 days
In short: (§2)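 Plants grown in peat/vermiculite medium were sprayed postemergence at 2–18 cm height (1- to 4-leaf stage). After 13–15 days in the greenhouse, response was rated visually against untreated controls on a 0–100 scale (0 no effect, 100 complete control).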

[9] = system: windgrass (Apera spica-venti); experiment: Test B postemergence plant response; conditions: for Windgrass plant response rating (0 to 100 scale): 62 g ai/ha, 0 is no effect, 13 to 15 days
In short: as §2

[10] = system: chickweed (Stellaria media); experiment: Test B postemergence plant response; conditions: for Chickweed plant response rating (0 to 100 scale): 62 g ai/ha, 0 is no effect, 13 to 15 days
In short: as §2

[11] = system: canarygrass (Phalaris minor); experiment: Test B postemergence plant response; conditions: for Canarygrass plant response rating (0 to 100 scale): 62 g ai/ha, 0 is no effect, 13 to 15 days
In short: as §2

[12] = Postemergence, 125 g ai/ha, 0 to 100 scale where 0 is no effect and 100 is complete control
[13] = Postemergence, 500 g ai/ha, 0 to 100 scale, 0 = no effect, 100 = complete control, approx. ten days
[14] = Preemergence, 125 g ai/ha, 0 to 100 scale, 0 = no effect, 100 = complete control
[15] = Preemergence, 500 g ai/ha, visual injury, 0 to 100 scale (0 no effect, 100 complete control), approx. ten days
[16] = 31 g ai/ha, postemergence, scale 0 to 100, 0 is no effect, 100 is complete control
[17] = postemergence, 100 is complete control
[18] = Postemergence, 125 g ai/ha, visual rating after 13 to 15 days, scale 0 (no effect) to 100 (complete control)
[19] = Postemergence, 250 g ai/ha, scale 0 to 100 (0 no effect, 100 complete control)

Compound: Cc1ccccc1-c1ncc(C(=O)C2=C(O)CCCC2=O)c(=O)n1-c1ccccc1 [Compound 82]
- Plant response rating, Morningglory [1, 12]: 90
- Plant response rating, Morningglory [1, 13]: 100
- Plant response rating, Morningglory [1, 14]: 0
- Plant response rating, Morningglory [1, 15]: 60
- Plant response rating, Pigweed [2, 12]: 90
- Plant response rating, Pigweed [2, 13]: 100
- Plant response rating, Pigweed [2, 14]: 90
- Plant response rating, Pigweed [2, 15]: 100
- Plant response rating, Foxtail, Giant [3, 12]: 10
- Plant response rating, Foxtail, Giant [3, 13]: 80
- Plant response rating, Foxtail, Giant [3, 14]: 10
- Plant response rating, Foxtail, Giant [3, 15]: 40
- Plant response rating, Barnyardgrass [4, 12]: 10
- Plant response rating, Barnyardgrass [4, 13]: 70
- Plant response rating, Barnyardgrass [4, 14]: 0
- Plant response rating, Barnyardgrass [4, 15]: 10
- Plant response rating, Corn (corn (Zea mays); [12]): 0
- Plant response rating, Corn (corn (Zea mays); [13]): 20
- Plant response rating, Corn (corn (Zea mays); [14]): 0
- Plant response rating, Corn (corn (Zea mays); [15]): 0
- Plant response rating, Wheat [5, 12]: 0
- Plant response rating, Wheat [5, 13]: 0
- Plant response rating, Wheat [5, 14]: 0
- Plant response rating, Wheat [5, 15]: 0
- Plant response rating, Velvetleaf [6, 12]: 100
- Plant response rating, Velvetleaf [6, 13]: 100
- Plant response rating, Velvetleaf [6, 14]: 50
- Plant response rating, Velvetleaf [6, 15]: 90
- Plant response rating, Crabgrass, Large [7, 12]: 40
- Plant response rating, Crabgrass, Large [7, 13]: 90
- Plant response rating, Crabgrass, Large [7, 15]: 100
- Plant response rating, Barley [8, 16]: 0
- Barley plant response rating (0 to 100 scale) [8, 17]: 0
- Plant response rating, Barley [8, 18]: 0
- Plant response rating, Barley [8, 19]: 5
- Plant response rating, Windgrass [9, 16]: 5
- Windgrass plant response rating (0 to 100 scale) [9, 17]: 5
- Plant response rating, Windgrass [9, 18]: 20
- Plant response rating, Windgrass [9, 19]: 50
- Plant response rating, Chickweed [10, 16]: 90
- Chickweed plant response rating (0 to 100 scale) [10, 17]: 90
- Plant response rating, Chickweed [10, 18]: 98
- Plant response rating, Chickweed [10, 19]: 100
- Plant response rating, Canarygrass [11, 16]: 0
- Canarygrass plant response rating (0 to 100 scale) [11, 17]: 0
- Plant response rating, Canarygrass [11, 18]: 15
- Plant response rating, Canarygrass [11, 19]: 35

Compound: CC(C)CC(=O)OC1=C(C(=O)c2cnc(-c3ccccc3)n(-c3ccccc3)c2=O)C(=O)CCC1 [Compound 83]
- Plant response rating, Morningglory [1, 12]: 100
- Plant response rating, Morningglory [1, 13]: 100
- Plant response rating, Morningglory [1, 14]: 20
- Plant response rating, Morningglory [1, 15]: 60
- Plant response rating, Pigweed [2, 12]: 90
- Plant response rating, Pigweed [2, 13]: 100
- Plant response rating, Pigweed [2, 14]: 80
- Plant response rating, Pigweed [2, 15]: 100
- Plant response rating, Foxtail, Giant [3, 12]: 70
- Plant response rating, Foxtail, Giant [3, 13]: 90
- Plant response rating, Foxtail, Giant [3, 14]: 40
- Plant response rating, Foxtail, Giant [3, 15]: 90
- Plant response rating, Barnyardgrass [4, 12]: 70
- Plant response rating, Barnyardgrass [4, 13]: 90
- Plant response rating, Barnyardgrass [4, 14]: 30
- Plant response rating, Barnyardgrass [4, 15]: 90
- Plant response rating, Corn (corn (Zea mays); [12]): 0
- Plant response rating, Corn (corn (Zea mays); [13]): 30
- Plant response rating, Corn (corn (Zea mays); [14]): 0
- Plant response rating, Corn (corn (Zea mays); [15]): 20
- Plant response rating, Wheat [5, 12]: 0
- Plant response rating, Wheat [5, 13]: 0
- Plant response rating, Wheat [5, 14]: 0
- Plant response rating, Wheat [5, 15]: 30
- Plant response rating, Velvetleaf [6, 12]: 100
- Plant response rating, Velvetleaf [6, 13]: 100
- Plant response rating, Velvetleaf [6, 14]: 70
- Plant response rating, Velvetleaf [6, 15]: 100
- Plant response rating, Crabgrass, Large [7, 12]: 80
- Plant response rating, Crabgrass, Large [7, 13]: 90
- Plant response rating, Crabgrass, Large [7, 14]: 70
- Plant response rating, Crabgrass, Large [7, 15]: 100
- Plant response rating, Barley [8, 16]: 0
- Barley plant response rating (0 to 100 scale) [8, 17]: 5
- Plant response rating, Barley [8, 18]: 5
- Plant response rating, Barley [8, 19]: 5
- Plant response rating, Windgrass [9, 16]: 5
- Windgrass plant response rating (0 to 100 scale) [9, 17]: 10
- Plant response rating, Windgrass [9, 19]: 30
- Plant response rating, Chickweed [10, 16]: 90
- Chickweed plant response rating (0 to 100 scale) [10, 17]: 90
- Plant response rating, Chickweed [10, 18]: 98
- Plant response rating, Chickweed [10, 19]: 100
- Plant response rating, Canarygrass [11, 16]: 20
- Canarygrass plant response rating (0 to 100 scale) [11, 17]: 20
- Plant response rating, Canarygrass [11, 18]: 25
- Plant response rating, Canarygrass [11, 19]: 25

Compound: COCCn1c(-c2ccccc2)ncc(C(=O)C2=C(O)CCCC2=O)c1=O [Compound 85]
- Plant response rating, Morningglory [1, 12]: 100
- Plant response rating, Morningglory [1, 13]: 100
- Plant response rating, Morningglory [1, 14]: 50
- Plant response rating, Morningglory [1, 15]: 80
- Plant response rating, Pigweed [2, 12]: 100
- Plant response rating, Pigweed [2, 13]: 100
- Plant response rating, Foxtail, Giant [3, 12]: 70
- Plant response rating, Foxtail, Giant [3, 13]: 90
- Plant response rating, Foxtail, Giant [3, 15]: 90
- Plant response rating, Barnyardgrass [4, 12]: 90
- Plant response rating, Barnyardgrass [4, 13]: 90
- Plant response rating, Barnyardgrass [4, 14]: 50
- Plant response rating, Barnyardgrass [4, 15]: 100
- Plant response rating, Corn (corn (Zea mays); [12]): 10
- Plant response rating, Corn (corn (Zea mays); [13]): 80
- Plant response rating, Corn (corn (Zea mays); [14]): 0
- Plant response rating, Corn (corn (Zea mays); [15]): 10
- Plant response rating, Wheat [5, 12]: 0
- Plant response rating, Wheat [5, 13]: 40
- Plant response rating, Wheat [5, 14]: 0
- Plant response rating, Wheat [5, 15]: 40
- Plant response rating, Velvetleaf [6, 12]: 100
- Plant response rating, Velvetleaf [6, 13]: 100
- Plant response rating, Velvetleaf [6, 14]: 70
- Plant response rating, Crabgrass, Large [7, 12]: 90
- Plant response rating, Crabgrass, Large [7, 13]: 90
- Plant response rating, Crabgrass, Large [7, 14]: 100
- Plant response rating, Crabgrass, Large [7, 15]: 100
- Plant response rating, Barley [8, 16]: 5
- Barley plant response rating (0 to 100 scale) [8, 17]: 10
- Plant response rating, Barley [8, 18]: 20
- Plant response rating, Barley [8, 19]: 20
- Plant response rating, Windgrass [9, 16]: 40
- Windgrass plant response rating (0 to 100 scale) [9, 17]: 70
- Plant response rating, Windgrass [9, 19]: 95
- Plant response rating, Chickweed [10, 16]: 85
- Chickweed plant response rating (0 to 100 scale) [10, 17]: 95
- Plant response rating, Chickweed [10, 18]: 95
- Plant response rating, Chickweed [10, 19]: 98
- Plant response rating, Canarygrass [11, 16]: 35
- Canarygrass plant response rating (0 to 100 scale) [11, 17]: 40
- Plant response rating, Canarygrass [11, 18]: 55
- Plant response rating, Canarygrass [11, 19]: 60

Compound: CCCCn1c(-c2ccccc2)ncc(C(=O)C2=C(O)CCCC2=O)c1=O [Compound 86]
- Plant response rating, Morningglory [1, 12]: 90
- Plant response rating, Morningglory [1, 13]: 90
- Plant response rating, Morningglory [1, 14]: 0
- Plant response rating, Morningglory [1, 15]: 60
- Plant response rating, Pigweed [2, 12]: 100
- Plant response rating, Pigweed [2, 13]: 100
- Plant response rating, Foxtail, Giant [3, 12]: 80
- Plant response rating, Foxtail, Giant [3, 13]: 90
- Plant response rating, Foxtail, Giant [3, 15]: 100
- Plant response rating, Barnyardgrass [4, 12]: 90
- Plant response rating, Barnyardgrass [4, 13]: 90
- Plant response rating, Barnyardgrass [4, 14]: 20
- Plant response rating, Barnyardgrass [4, 15]: 100
- Plant response rating, Corn (corn (Zea mays); [12]): 0
- Plant response rating, Corn (corn (Zea mays); [13]): 50
- Plant response rating, Wheat [5, 12]: 0
- Plant response rating, Wheat [5, 13]: 50
- Plant response rating, Velvetleaf [6, 12]: 100
- Plant response rating, Velvetleaf [6, 13]: 100
- Plant response rating, Velvetleaf [6, 15]: 100
- Plant response rating, Crabgrass, Large [7, 12]: 90
- Plant response rating, Crabgrass, Large [7, 13]: 90
- Plant response rating, Barley [8, 16]: 30
- Barley plant response rating (0 to 100 scale) [8, 17]: 40
- Plant response rating, Barley [8, 18]: 60
- Plant response rating, Barley [8, 19]: 65
- Plant response rating, Windgrass [9, 16]: 30
- Windgrass plant response rating (0 to 100 scale) [9, 17]: 60
- Plant response rating, Windgrass [9, 19]: 95
- Plant response rating, Chickweed [10, 16]: 80
- Chickweed plant response rating (0 to 100 scale) [10, 17]: 95
- Plant response rating, Chickweed [10, 18]: 95
- Plant response rating, Chickweed [10, 19]: 98
- Plant response rating, Canarygrass [11, 16]: 20
- Canarygrass plant response rating (0 to 100 scale) [11, 17]: 20
- Plant response rating, Canarygrass [11, 18]: 80
- Plant response rating, Canarygrass [11, 19]: 85
